Calls of active or inactive are those of the source. No cut-off for these calls is given here. Starred links: 1 amine or outer side, 2 acyl side, 3 side chain; linkers in the order of their positions; H or OH if unused. Positions of bridges follow the written chain, without caps; N, C: chain ends. Non-standard residues stand in square brackets, D forms with d. Residues, ends and D or L forms follow the SMILES beside them. *: point of attachment. hTyr(3S-OH,4S-OH,3'-OSO3H) = N[C@H](C(=O)O)[C@H](O)[C@@H](O)c1ccc(O)c(OS(=O)(=O)O)c1; Orn(4R-OH,5R-OH) = O=C([C@H](C[C@@H](O)[C@@H](O)N[*:3])N[*:1])[*:2]; Pro(3S-OH,4S-Me) = C[C@H]1CN[C@H](C(=O)O)[C@H]1O; X1 = CCCCCOc1ccc(-c2cc(-c3ccc(C(=O)*)cc3)no2)cc1; Gln(3R-OH) = NC(=O)C[C@@H](O)[C@H](N)C(=O)O; Hyp = O=C(O)[C@@H]1C[C@@H](O)CN1
Key:
[1] = molecular target: T1, NEDD8/NEDD8-conjugating enzyme Ubc12 (Homo sapiens, UniProt P61081+Q15843); assay: Inhibition of GST-tagged recombinant human UBE2M/His-tagged human NEDD8 interaction by HTRF assay relative to control; format: protein-complex assay
[2] = Inhibition of His-tagged recombinant human NAE expressed in Escherichia coli (BL21) by HTRF assay
Homo sapiens = species: Homo sapiens; assay: Inhibition of neddylation of His-tagged recombinant human NAE expressed in Escherichia coli (BL21) at 6.25 to 100 uM by Western blot analysis; settings: dose 6.25-100 µM
[3] = molecular target: T2, NEDD8-conjugating enzyme Ubc12 (Homo sapiens, UniProt P61081); assay: Inhibition of UBE2M neddylation in human AGS cells incubated for 3 days by immunoblot analysis; format: cell-based
T2 sequence (P61081 whole entry): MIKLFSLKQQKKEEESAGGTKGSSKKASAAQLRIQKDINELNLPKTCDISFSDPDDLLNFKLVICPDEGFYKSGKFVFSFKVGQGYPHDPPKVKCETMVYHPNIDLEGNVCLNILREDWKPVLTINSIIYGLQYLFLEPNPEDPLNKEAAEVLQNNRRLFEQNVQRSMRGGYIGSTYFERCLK

Cullin-1 (Homo sapiens) [4] = molecular target: Cullin-1 (Homo sapiens) (UniProt Q13616); assay: Inhibition of CULLIN-1 neddylation in human AGS cells incubated for 24 hrs by immunoblot analysis; format: cell-based; settings: dose 5-40 µM
AGS [5] = assay: Inhibition of cell migration of human AGS cells at 50 uM incubated for 48 hrs by transwell assay; format: functional, cell-based
AGS [6] = assay: Induction of cell cycle arrest at G2 phase in human AGS cells at 20 to 40 uM incubated for 24 hrs by PI staining based FACS analysis; format: functional; settings: dose 20-40 µM
AGS [7] = assay: Induction of apoptosis in human AGS cells assessed as increase in NOXA level at 5 to 40 uM incubated for 24 hrs by immunoblot analysis; format: functional, cell-based; settings: dose 5-40 µM
Cullin-1 (Homo sapiens) [8] = molecular target: Cullin-1 (Homo sapiens) (UniProt Q13616); assay: Inhibition of CULLIN-1 neddylation in human AGS cells assessed as increase in p27 level at 5 to 40 uM incubated for 24 hrs by immunoblot analysis; format: cell-based; settings: dose 5-40 µM
AGS [9] = assay: Inhibition of cell migration of human AGS cells assessed as decrease in VIMENTIN level at 5 to 40 uM incubated for 48 hrs by Western blot analysis; format: functional, cell-based; settings: dose 5-40 µM
AGS [10] = assay: Inhibition of cell migration of human AGS cells at 50 uM incubated for 48 hrs by wound healing assay; format: functional, cell-based
AGS [11] = assay: Induction of apoptosis in human AGS cells assessed as increase in cleaved caspase-3 level at 5 to 40 uM incubated for 24 hrs by immunoblot analysis; format: functional, cell-based; settings: dose 5-40 µM
AGS [12] = assay: Inhibition of cell migration of human AGS cells assessed as increase in E-CADHERIN level at 5 to 40 uM incubated for 48 hrs by Western blot analysis; format: functional, cell-based; settings: dose 5-40 µM
AGS [13] = assay: Induction of cell cycle arrest in human AGS cells assessed as decrease in cell population at S phase at 20 to 40 uM incubated for 24 hrs by PI staining based FACS analysis; format: functional; settings: dose 20-40 µM
AGS [14] = assay: Induction of apoptosis in human AGS cells assessed as decrease in PARP-1 level at 5 to 40 uM incubated for 24 hrs by immunoblot analysis; format: functional, cell-based; settings: dose 5-40 µM
Cullin-1 (Homo sapiens) [15] = molecular target: Cullin-1 (Homo sapiens) (UniProt Q13616); assay: Inhibition of CULLIN-1 neddylation in human AGS cells assessed as increase in p21 level incubated for 24 hrs by immunoblot analysis; format: cell-based; settings: dose 5-40 µM
AGS [16] = assay: Induction of cell cycle arrest at G2/M phase in human AGS cells at 20 to 40 uM incubated for 24 hrs by PI staining based FACS analysis; format: functional; settings: dose 20-40 µM
[17] = molecular target: T3, NEDD8-conjugating enzyme Ubc12 (Homo sapiens) (UniProt P61081); assay: Binding affinity to GST-tagged recombinant human UBE2M assessed as protein stability upto 70 degreeC at 20 uM preincubated for 10 mins followed by heat exposure by TSA
T3 sequence (whole entry): T2 sequence (P61081 whole entry)

AGS [18] = assay: Inhibition of cell migration of human AGS cells assessed as decrease in SNAIL level at 5 to 40 uM incubated for 48 hrs by Western blot analysis; format: functional, cell-based; settings: dose 5-40 µM
AGS [19] = assay: Inhibition of cell viability in human AGS cells incubated for 72 to 120 hrs by MTT assay; format: functional, cell-based; settings: dose 5-80 µM, time 72-120 hrs
[20] = molecular target: T3, NEDD8-conjugating enzyme Ubc12 (Homo sapiens); assay: Inhibition of […] conjugation to GST-tagged recombinant human UBE2M by pull-down based immunoprecipitation method
[21] = molecular target: T3, NEDD8-conjugating enzyme Ubc12 (Homo sapiens); assay: Binding affinity to GST-tagged recombinant human UBE2M assessed as protein stability at 65 degreeC incubated for 24 hrs by CETSA; settings: AGS
[22] = molecular target: T3, NEDD8-conjugating enzyme Ubc12 (Homo sapiens); assay: Binding affinity to GST-tagged recombinant human UBE2M assessed as protein stability at 60 degreeC preincubated for 10 mins followed by heat exposure by TSA; settings: dose 1.25-20 µM
AGS [23] = assay: Inhibition of global CULLIN neddylation in human AGS cells incubated for 24 hrs by immunoblot analysis; format: cell-based; settings: dose 5-40 µM
[24] = molecular target: T3, NEDD8-conjugating enzyme Ubc12 (Homo sapiens); assay: Binding affinity to GST-tagged recombinant human UBE2M assessed as protein stability at 55 to 60 degreeC incubated for 24 hrs by CETSA; format: cell-based; settings: AGS
AGS [25] = assay: Inhibition of colony formation of human AGS cells incubated for 10 days with replacement of drug containing medium every 3 days by crystal violet staining based analysis; format: functional, cell-based; settings: dose 10-40 µM, time 10.0 day
[26] = molecular target: T1, NEDD8/NEDD8-conjugating enzyme Ubc12; assay: Inhibition of GST-tagged recombinant human UBE2M/His-tagged human NEDD8 interaction by HTRF assay; format: protein-complex assay
[27] = molecular target: T3, NEDD8-conjugating enzyme Ubc12 (Homo sapiens); assay: Inhibition of neddylation of GST-tagged recombinant human UBE2M expressed in Escherichia coli (BL21) by Western blot analysis; settings: dose 6.25-100 µM
AGS [28] = assay: Induction of DNA damage in human AGS cells assessed as increase in phosphorylated H2Ax expression at 50 uM incubated for 48 hrs by immunofluorescence analysis; format: functional, cell-based
AGS [29] = assay: Inhibition of cell migration of human AGS cells assessed as increase in N-CADHERIN level at 5 to 40 uM incubated for 48 hrs by Western blot analysis; format: functional, cell-based; settings: dose 5-40 µM

Chain of Cullin-1 (Homo sapiens) (Q13616 whole entry): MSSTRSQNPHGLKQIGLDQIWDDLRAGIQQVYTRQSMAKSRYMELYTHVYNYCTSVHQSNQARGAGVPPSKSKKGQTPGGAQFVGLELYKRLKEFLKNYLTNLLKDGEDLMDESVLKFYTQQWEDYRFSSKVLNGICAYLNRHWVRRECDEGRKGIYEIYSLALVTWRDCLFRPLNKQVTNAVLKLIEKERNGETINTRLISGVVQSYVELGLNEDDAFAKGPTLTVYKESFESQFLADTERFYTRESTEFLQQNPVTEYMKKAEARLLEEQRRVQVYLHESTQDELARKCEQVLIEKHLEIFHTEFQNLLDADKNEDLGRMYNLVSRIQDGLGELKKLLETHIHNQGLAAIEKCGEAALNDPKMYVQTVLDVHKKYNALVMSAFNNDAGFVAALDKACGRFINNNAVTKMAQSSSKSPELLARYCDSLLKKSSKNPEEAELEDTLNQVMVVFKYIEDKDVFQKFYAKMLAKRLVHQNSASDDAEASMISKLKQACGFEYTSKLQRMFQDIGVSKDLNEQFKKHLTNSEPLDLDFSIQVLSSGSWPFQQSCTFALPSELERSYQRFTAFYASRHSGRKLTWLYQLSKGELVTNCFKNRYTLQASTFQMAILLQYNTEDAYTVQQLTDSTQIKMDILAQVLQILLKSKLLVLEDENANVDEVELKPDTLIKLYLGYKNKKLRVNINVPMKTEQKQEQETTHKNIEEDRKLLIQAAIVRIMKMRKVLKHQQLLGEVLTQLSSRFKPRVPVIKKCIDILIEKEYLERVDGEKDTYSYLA
T1 sequence (Q15843 whole entry, one chain of several): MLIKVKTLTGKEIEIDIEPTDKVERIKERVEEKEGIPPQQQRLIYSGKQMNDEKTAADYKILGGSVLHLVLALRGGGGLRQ

SMILES: Cc1cccc(N(C)C(=S)Oc2ccc3ccccc3c2)c1
- inhibition [1]: 55.2%

SMILES: C[C@H]1c2cccc(O)c2C(=O)C2=C(O)[C@]3(O)C(=O)C(C(N)=O)=C(O)[C@@H](N(C)C)[C@@H]3[C@@H](O)[C@@H]21
- inhibition [1]: 78.1%

SMILES: COc1cccc2c1C(=O)c1c(O)c3c(c(O)c1C2=O)C[C@@](O)(C(=O)CO)C[C@@H]3O[C@H]1C[C@H](N)[C@H](O)[C@H](C)O1
- inhibition [1]: 76.5%

SMILES: CN(C)[C@@H]1C(O)=C(C(N)=O)C(=O)[C@@]2(O)C(O)=C3C(=O)c4c(O)cccc4[C@@](C)(O)[C@H]3C[C@@H]12
- inhibition [1]: 56.4%

SMILES: CCCCCCCCCCCC[N+](C)(C)CCOc1ccccc1
- inhibition [1]: 56.5%

SMILES: NS(=O)(=O)OC[C@@H]1C[C@@H](n2ccc3c(N[C@H]4CCc5ccccc54)ncnc32)C[C@@H]1O [PEVONEDISTAT]
- IC50 [2]: 0.0058 µM

SMILES: CN(C)[C@@H]1C(O)=C(C(N)=O)C(=O)[C@@]2(O)C(O)=C3C(=O)c4c(O)cccc4[C@@](C)(O)[C@H]3[C@H](O)[C@@H]12
- inhibition [1]: 64.8%

SMILES: CCCCCCCCOc1ccccc1C(=O)Nc1ccc(C(=O)OCC[N+](C)(CC)CC)cc1
- inhibition (Homo sapiens): Active
- inhibition [1]: 74.2%

SMILES: CN(C)c1cc(NC(=O)CNC(C)(C)C)c(O)c2c1C[C@H]1C[C@H]3[C@H](N(C)C)C(O)=C(C(N)=O)C(=O)[C@@]3(O)C(O)=C1C2=O
- inhibition [1]: 69.3%

SMILES: Cc1cc(Nc2ncc(Cl)c(Nc3ccccc3S(=O)(=O)C(C)C)n2)c(OC(C)C)cc1C1CCNCC1
- inhibition (Homo sapiens): Active
- inhibition [1]: 88.2%

SMILES: CN(C)c1ccc(O)c2c1C[C@H]1C[C@H]3[C@H](N(C)C)C(O)=C(C(N)=O)C(=O)[C@@]3(O)C(O)=C1C2=O
- inhibition [1]: 58.9%

SMILES: CCCCCOc1ccc(-c2cc(-c3ccc(C(=O)N[C@H]4C[C@@H](O)[C@@H](O)NC(=O)[C@@H]5[C@@H](O)[C@@H](C)CN5C(=O)[C@H]([C@H](O)CC(N)=O)NC(=O)[C@H]([C@H](O)[C@@H](O)c5ccc(O)c(OS(=O)(=O)O)c5)NC(=O)[C@@H]5C[C@@H](O)CN5C(=O)[C@H]([C@@H](C)O)NC4=O)cc3)no2)cc1 [MICAFUNGIN] (X1-[Orn(4R-OH,5R-OH)]T[Hyp][hTyr(3S-OH,4S-OH,3'-OSO3H)][Gln(3R-OH)][Pro(3S-OH,4S-Me)]; lactam 1-C)
- IC50 [3]: 39.9 µM
- inhibition (Cullin-1 (Homo sapiens) [4]): Active
- inhibition (AGS [5]): Active
- Activity (AGS [6]): Active
- inhibition (Homo sapiens): inactive
- Activity (AGS [7]): Active
- inhibition (Cullin-1 (Homo sapiens) [8]): Active
- inhibition (AGS [9]): Active
- inhibition (AGS [10]): Active
- Activity (AGS [11]): Active
- inhibition (AGS [12]): Active
- Activity (AGS [13]): Active
- Activity (AGS [14]): Active
- inhibition (Cullin-1 (Homo sapiens) [15]): Dose-Dependent Effect
- Activity (AGS [16]): Active
- Activity [17]: Active
- inhibition (AGS [18]): Active
- inhibition (AGS [19]): Active
- inhibition [20]: Active
- Activity [21]: inactive
- Activity [22]: Dose-Dependent Effect
- inhibition (AGS [23]): Active
- Activity [24]: Active
- inhibition (AGS [25]): Active
- IC50 [26]: 17 µM
- inhibition [27]: Dose-Dependent Effect
- Activity (AGS [28]): Active
- inhibition [1]: 66.2%
- inhibition (AGS [29]): Active
